Measured values reported in patent US20250041380A1, “R[…] FOR SARS-COV2 DISEASE” (priority 2021, published 2025).
Where two headings read alike, the source gives them in different places.

Columns and labels:
Immune (THP-1) cells = assay: in vitro; assay type: cell-based, Human; details: 48 h
Method: (§1) A549 cells were plated in DMEM+10% FBS at a density of 10,000 cells/well in 96-well culture plates and incubated at 37° C. for 24 h. THP-1 cells were plated in RPMI+10% FBS at a density of 10,000 cells/well in 96-well culture plates and incubated at 37° C. for 24 h. Cells were sera-starved for 24 h. […] Untreated cells were used as control. Cells treated with dexamethasone and hydroxychloroquine were included as positive control. After treatment, cells were incubated in a 5% CO2 incubator for 48 h.

Lung (A549) cells = assay: in vitro; assay type: cell-based, Human; details: 48 h
Method: as §1

Bladder cells (T24) = assay: tissue or blood; assay type: cell-based; details: Spike S1 Protein (5 μg/ml)
Cardiac cells (H9C2) = assay: cells; assay type: cell-based; details: Spike S1 Protein (5 μg/ml); for inhibition at 0.1 µM / inhibition at 1 µM / inhibition at 10 µM / inhibition at 20 µM: Rattus norvegicus, H9c2
Colon cells (HT-29) = assay: cells; assay type: cell-based; details: Spike S1 Protein (1 μg/ml); for inhibition at 0.1 µM / inhibition at 1 µM / inhibition at 10 µM / inhibition at 20 µM: Homo sapiens, HT-29
[1] = system: Endothelial cells (EA.hy926); assay: cells; assay type: cell-based; details: Spike S1 Protein (1 μg/ml); for inhibition at 0.1 µM / inhibition at 1 µM / inhibition at 10 µM / inhibition at 20 µM: Homo sapiens, EA.hy 926
Kidney cells (HEK-293) = assay: cells; assay type: cell-based; details: Spike S1 Protein (100 ng/ml); for inhibition at 0.1 µM / inhibition at 1 µM / inhibition at 10 µM / inhibition at 20 µM: Homo sapiens, HEK293
Bone cells (MG-63) = assay: cells; assay type: cell-based; details: Spike S1 Protein (10 μg/ml); for inhibition at 0.1 µM / inhibition at 1 µM / inhibition at 10 µM / inhibition at 20 µM: Homo sapiens, MG-63
liver cells (HepG2) = assay: cells; assay type: cell-based; details: Spike S1 Protein (20 μg/ml)
[2] = system: pancreatic cells (PANC-1); assay: cells; assay type: cell-based; details: Spike S1 Protein (20 μg/ml)+
[3] = 0.1 μM, read-out: % Inhibition (IL-6)
[4] = 0.1 μM, read-out: % Inhibition (IL-8)
[5] = 1 μM, read-out: % Inhibition (IL-6)
[6] = 1 μM, read-out: % Inhibition (IL-8)
[7] = 10 μM, read-out: % Inhibition (IL-6)
[8] = 10 μM, read-out: % Inhibition (IL-8)
[9] = 20 μM, read-out: % Inhibition (IL-6)
[10] = 20 μM, read-out: % Inhibition (IL-8)
[11] = 0.1 μM, read-out: % Inhibition (wrt Control), IL-6
[12] = 0.1 μM, read-out: % Inhibition (wrt Control), IL-8
[13] = 1 μM, read-out: % Inhibition (wrt Control), IL-6
[14] = 1 μM, read-out: % Inhibition (wrt Control), IL-8
[15] = 10 μM, read-out: % Inhibition (wrt Control), IL-6
[16] = 10 μM, read-out: % Inhibition (wrt Control), IL-8
[17] = 20 μM, read-out: % Inhibition (wrt Control), IL-6
[18] = 20 μM, read-out: % Inhibition (wrt Control), IL-8

C[C@@H]1C[C@H]2[C@@H]3CCC4=CC(=O)C=C[C@]4(C)[C@@]3(F)[C@@H](O)C[C@]2(C)[C@@]1(O)C(=O)CO [Dexamethasone]
% Viability (Immune (THP-1) cells; 0.1 μM): 110.0% | % Viability (Immune (THP-1) cells; 1 μM): 98.2% | % Viability (Immune (THP-1) cells; 5 μM): 83.1% | % Viability (Immune (THP-1) cells; 10 μM): 95.6% | % Viability (Immune (THP-1) cells; 20 μM): 104.3% | % Viability (Lung (A549) cells; 0.1 μM): 122.7% | % Viability (Lung (A549) cells; 1 μM): 76.3% | % Viability (Lung (A549) cells; 5 μM): 90.0% | % Viability (Lung (A549) cells; 10 μM): 82.6% | % Viability (Lung (A549) cells; 20 μM): 69.5% | Con. of IL-8 (Bladder cells (T24); 0.1 μM): 2458.5 | Conc. of IL-6 (Bladder cells (T24); 0.1 μM): 292.2 | inhibition at 0.1 µM (Bladder cells (T24); [3]): 49.4% | inhibition at 0.1 µM (Bladder cells (T24); [4]): 42.5% | Con. of IL-8 (Bladder cells (T24); 1 μM): 2008.8 | Conc. of IL-6 (Bladder cells (T24); 1 μM): 348.5 | inhibition at 1 µM (Bladder cells (T24); [5]): 39.7% | inhibition at 1 µM (Bladder cells (T24); [6]): 53% | Con. of IL-8 (Bladder cells (T24); 10 μM): 2198.1 | Conc. of IL-6 (Bladder cells (T24); 10 μM): 369.4 | inhibition at 10 µM (Bladder cells (T24); [7]): 36% | inhibition at 10 µM (Bladder cells (T24); [8]): 48.6% | Con. of IL-8 (Bladder cells (T24); 20 μM): 2386.4 | Conc. of IL-6 (Bladder cells (T24); 20 μM): 365.4 | inhibition at 20 µM (Bladder cells (T24); [9]): 36.7% | inhibition at 20 µM (Bladder cells (T24); [10]): 44.2% | Con. of IL-8 (Cardiac cells (H9C2); 0.1 μM): 31.2 | Conc. of IL-6 (Cardiac cells (H9C2); 0.1 μM): 50.8 | Con. of IL-8 (Cardiac cells (H9C2); 1 μM): 18.6 | Conc. of IL-6 (Cardiac cells (H9C2); 1 μM): 44.5 | Con. of IL-8 (Cardiac cells (H9C2); 10 μM): 29.1 | Conc. of IL-6 (Cardiac cells (H9C2); 10 μM): 53.3 | Con. of IL-8 (Cardiac cells (H9C2); 20 μM): 48.7 | Conc. of IL-6 (Cardiac cells (H9C2); 20 μM): 51.8 | inhibition at 0.1 µM (Cardiac cells (H9C2); [3]): 90% | inhibition at 0.1 µM (Cardiac cells (H9C2); [4]): 97.8% | inhibition at 1 µM (Cardiac cells (H9C2); [5]): 91.2% | inhibition at 1 µM (Cardiac cells (H9C2); [6]): 98.7% | inhibition at 10 µM (Cardiac cells (H9C2); [7]): 89.5% | inhibition at 10 µM (Cardiac cells (H9C2); [8]): 98% | inhibition at 20 µM (Cardiac cells (H9C2); [9]): 89.7% | inhibition at 20 µM (Cardiac cells (H9C2); [10]): 96.6% | Con. of IL-8 (Colon cells (HT-29); 0.1 μM): 44.1 pg/mL | Conc. of IL-6 (Colon cells (HT-29); 0.1 μM): 106.0 pg/mL | Con. of IL-8 (Colon cells (HT-29); 1 μM): 18.2 pg/mL | Conc. of IL-6 (Colon cells (HT-29); 1 μM): 89.1 pg/mL | Con. of IL-8 (Colon cells (HT-29); 10 μM): 53.5 pg/mL | Conc. of IL-6 (Colon cells (HT-29); 10 μM): 73.6 pg/mL | Con. of IL-8 (Colon cells (HT-29); 20 μM): 66.4 pg/mL | Conc. of IL-6 (Colon cells (HT-29); 20 μM): 109.0 pg/mL | inhibition at 0.1 µM (Colon cells (HT-29); [11]): 55% | inhibition at 0.1 µM (Colon cells (HT-29); [12]): 93.4% | inhibition at 1 µM (Colon cells (HT-29); [13]): 62.2% | inhibition at 1 µM (Colon cells (HT-29); [14]): 97.3% | inhibition at 10 µM (Colon cells (HT-29); [15]): 68.8% | inhibition at 10 µM (Colon cells (HT-29); [16]): 92% | inhibition at 20 µM (Colon cells (HT-29); [17]): 53.8% | inhibition at 20 µM (Colon cells (HT-29); [18]): 90.1% | Con. of IL-8 ([1]; 0.1 μM): 1208.6 pg/mL | Con. of IL-8 ([1]; 1 μM): 1250.3 pg/mL | Conc. of IL-6 ([1]; 1 μM): 42.9 pg/mL | Con. of IL-8 ([1]; 10 μM): 1633.7 pg/mL | Conc. of IL-6 ([1]; 10 μM): 53.9 pg/mL | Con. of IL-8 ([1]; 20 μM): 1766.1 pg/mL | Conc. of IL-6 ([1]; 20 μM): 72.9 pg/mL | inhibition at 0.1 µM ([1]; 0.1 μM, read-out: % Inhibition (wrt, IL-6)): 85.7% | inhibition at 0.1 µM ([1]; 0.1 μM, read-out: % Inhibition (wrt, IL-8)): 25.2% | inhibition at 1 µM ([1]; 1 μM, read-out: % Inhibition (wrt, IL-6)): 87.3% | inhibition at 1 µM ([1]; 1 μM, read-out: % Inhibition (wrt, IL-8)): 22.6% | inhibition at 10 µM ([1]; 10 μM, read-out: % Inhibition (wrt, IL-6)): 84% | inhibition at 10 µM ([1]; 10 μM, read-out: % Inhibition (wrt, IL-8)): 0% | inhibition at 20 µM ([1]; 20 μM, read-out: % Inhibition (wrt, IL-6)): 78.4% | inhibition at 20 µM ([1]; 20 μM, read-out: % Inhibition (wrt, IL-8)): 0% | Con. of IL-8 (Kidney cells (HEK-293); 0.1 μM): 447.3 pg/mL | Conc. of IL-6 (Kidney cells (HEK-293); 0.1 μM): 64.5 pg/mL | Con. of IL-8 (Kidney cells (HEK-293); 1 μM): 453.6 pg/mL | Conc. of IL-6 (Kidney cells (HEK-293); 1 μM): 65.6 pg/mL | Con. of IL-8 (Kidney cells (HEK-293); 10 μM): 551.8 pg/mL | Conc. of IL-6 (Kidney cells (HEK-293); 10 μM): 79.6 pg/mL | Con. of IL-8 (Kidney cells (HEK-293); 20 μM): 292.7 pg/mL | Conc. of IL-6 (Kidney cells (HEK-293); 20 μM): 42.6 pg/mL | inhibition at 0.1 µM (Kidney cells (HEK-293); [11]): 75.2% | inhibition at 0.1 µM (Kidney cells (HEK-293); [12]): 76.6% | inhibition at 1 µM (Kidney cells (HEK-293); [13]): 74.8% | inhibition at 1 µM (Kidney cells (HEK-293); [14]): 76.3% | inhibition at 10 µM (Kidney cells (HEK-293); [15]): 69.4% | inhibition at 10 µM (Kidney cells (HEK-293); [16]): 71.2% | inhibition at 20 µM (Kidney cells (HEK-293); [17]): 83.6% | inhibition at 20 µM (Kidney cells (HEK-293); [18]): 84.7% | Con. of IL-8 (Bone cells (MG-63); 0.1 μM): 407.8 pg/mL | Conc. of IL-6 (Bone cells (MG-63); 0.1 μM): 49.3 pg/mL | Con. of IL-8 (Bone cells (MG-63); 1 μM): 355.6 pg/mL | Conc. of IL-6 (Bone cells (MG-63); 1 μM): 50.9 pg/mL | Con. of IL-8 (Bone cells (MG-63); 10 μM): 400.6 pg/mL | Conc. of IL-6 (Bone cells (MG-63); 10 μM): 46.2 pg/mL | Con. of IL-8 (Bone cells (MG-63); 20 μM): 427.8 pg/mL | Conc. of IL-6 (Bone cells (MG-63); 20 μM): 52.0 pg/mL | inhibition at 0.1 µM (Bone cells (MG-63); [11]): 69.2% | inhibition at 0.1 µM (Bone cells (MG-63); [12]): 42.4% | inhibition at 1 µM (Bone cells (MG-63); [13]): 68.2% | inhibition at 1 µM (Bone cells (MG-63); [14]): 49.8% | inhibition at 10 µM (Bone cells (MG-63); [15]): 71.1% | inhibition at 10 µM (Bone cells (MG-63); [16]): 43.4% | inhibition at 20 µM (Bone cells (MG-63); [17]): 67.5% | inhibition at 20 µM (Bone cells (MG-63); [18]): 39.6% | Conc. of IL-8 (liver cells (HepG2); 0.1 μM): 91.4 pg/mL | Conc. of IL-8 (liver cells (HepG2); 1 μM): 21.5 pg/mL | Conc. of IL-8 (liver cells (HepG2); 10 μM): 64.4 pg/mL | Conc. of IL-8 (liver cells (HepG2); 20 μM): 23.9 pg/mL | inhibition at 0.1 µM (liver cells (HepG2); Homo sapiens, HepG2, 0.1 μM, read-out: % Inhibition (wrt Control ), IL-8): 81.7% | inhibition at 1 µM (liver cells (HepG2); Homo sapiens, HepG2, 1 μM, read-out: % Inhibition (wrt Control ), IL-8): 95.7% | inhibition at 10 µM (liver cells (HepG2); Homo sapiens, HepG2, 10 μM, read-out: % Inhibition (wrt Control ), IL-8): 87.1% | inhibition at 20 µM (liver cells (HepG2); Homo sapiens, HepG2, 20 μM, read-out: % Inhibition (wrt Control ), IL-8): 95.2% | Conc. of IL-8 ([2]; 0.1 μM): 330.5 pg/mL | Conc. of IL-8 ([2]; 1 μM): 296.2 pg/mL | Conc. of IL-8 ([2]; 10 μM): 342.8 pg/mL | Conc. of IL-8 ([2]; 20 μM): 255.7 pg/mL | inhibition at 0.1 µM ([2]; Homo sapiens, PANC-1, 0.1 μM, read-out: % Inhibition (wrt Control ), IL-8): 55.7% | inhibition at 1 µM ([2]; Homo sapiens, PANC-1, 1 μM, read-out: % Inhibition (wrt Control ), IL-8): 60.3% | inhibition at 10 µM ([2]; Homo sapiens, PANC-1, 10 μM, read-out: % Inhibition (wrt Control ), IL-8): 54.1% | inhibition at 20 µM ([2]; Homo sapiens, PANC-1, 20 μM, read-out: % Inhibition (wrt Control ), IL-8): 65.7%
